{
  "source": "patent US20230204572A1",
  "about": "“Engineered Biosensors in an Encapsulated and Deployable System (EBEADS) for Environmental Chemical Detection” (priority 2021, published 2023)",
  "key": {"HbpR [1]": {"system": "HbpR", "test": "β-galactosidase (lacZ) reporter activity of sensing strain pBL_IMP_11 without amplification circuit in liquid culture", "type": "cell-based, Pseudomonas azelaica", "procedure": "Cultures were grown overnight to saturation and then diluted to an OD600 of 0.2. Cultures were incubated at 30° C. with shaking until an OD600 of 0.7-1 before inducing cultures with 2-phenylphenol dissolved in 100% ethanol. Cultures were incubate for 3 hours or 1 mL samples were taken every hour. For experiments where 2-PP was removed after incubating for 3 hours, cultures were divided in two tubes and centrifuged. One half of the cultures were washed with 1×PBS to remove 2-phenylphenol and resuspended in fresh medium with antibiotics and without 2-phenylphenol. The other half was resuspended in their original medium without washing. Aliquots were taken every hour. […] Statistical significance of results was determined using a Student's two-tailed t-test. The limit of detection (LOD) was calculated using GraphPad Prism software and is defined as the blank plus three times the standard deviation of the blank.\nIn the bacterial sensor cells when exposed to 2-PP, the HbpR promoter is activated by 2-PP and HbpR protein is expressed from the transfected plasmids. […] The Limit of Detection (LOD) was calculated to be 0.863 μM for this sensor strain (FIG. 1i). […]\nIn order to test the response of the reporter over time, the sensor strains were treated with various amounts of 2-PP and reporter activity was measured every hour for five hours. […]"}, "HbpR [2]": {"system": "HbpR", "test": "AmilCP visual reporter of sensing strains on agar plates and in liquid culture", "type": "cell-based, Pseudomonas azelaica", "procedure": "Strains containing AmilCP reporters were incubated overnight to saturation at 30° C. with shaking. Three μl of culture were pipetted onto 6 cm LB-agar plates containing 0.2 mM IPTG, 100 μg/mL carbenicillin, 50 μg/mL kanamycin, and 0 μM, 1 μM, or 10 μM of 2-phenylphenol. Images of the plates were taken at time points 0, 6, 12, 24, and 48 hours with a Nikon SMZ25 stereoscope.\nAfter 12-24 hours on agar plates containing 10 μM 2-phenylphenol, the strains with amplification circuit produced enough AmilCP purple reporter to become just barely visible.\nWhile the response time for the AmilCP reporter was slower than the 2 hour response time observed with the β-galactosidase reporter, use of the AmilCP reporter allowed for reporter visualization without additional equipment. When absorbance at 588 nm was used, addition of the amplification circuit in the AmilCP system allowed for detection of 2-PP at concentrations as low as 1 μM (FIG. 4B). The increase in reporter production through genetic amplification made it feasible for the living sensor to maintain a robust, visual reporter output when encapsulated."}, "HbpR [3]": {"system": "HbpR", "test": "Sensor induction in hydrogel microbeads (eBEADS, amplification circuit strain, AmilCP)", "type": "cell-based, Pseudomonas azelaica", "procedure": "The encapsulated sensing strain's ability to detect low concentrations of 2-PP and produce a visible output signal were evaluated by time series of microscope images. Briefly, the positive control strain and 2-PP with amplification circuit strain were encapsulated in the PAA formulation as previously described above. The microbeads were placed on LB agar plates containing 0.2 mM IPTG, 100 μg/mL carbenicillin, and 50 μg/mL kanamycin supplemented with 0, 1 or 10 μM 2-phenylphenol and incubated at 30° C. Images of the sensing strain microbeads were taken at time points 0, 6, 12, 24, and 48 hours with a Nikon SMZ25 stereoscope."}, "aquatic organisms": {"system": "aquatic organisms", "settings": "EPA reregistration decision; cited from earlier work"}, "[4]": {"system": "mutant HbpR protein P6-A-8", "settings": "50 μM PCB-1 vs 50 μM 2-PP", "from_the_text": "(§1) To generate biosensor systems that detect additional analytes, HbpR mutants were generated using a HbpR codon optimized library sequence (SEQ ID NO: 4) and a plasmid containing the same (SEQ ID NO: 8) and selection against different analytes."}, "[5]": {"system": "mutant HbpR protein P6-B-9", "settings": "50 μM PCB-1 vs 50 μM 2-PP", "from_the_text": "as §1"}, "[6]": {"system": "mutant HbpR protein P6-F-8", "settings": "50 μM PCB-1 vs 50 μM 2-PP", "from_the_text": "as §1"}, "[7]": {"system": "mutant HbpR protein P4-A-8", "settings": "50 μM PCB-3 vs 50 μM 2-HBP", "from_the_text": "as §1"}, "[8]": {"settings": "agar plates, 1 μM and 10 μM 2-phenylphenol"}},
  "data": [
    {"smiles": "Oc1ccccc1-c1ccccc1", "note": "[2-PP, 2-phenylphenol]", "values": [
      {"measurement": "Limit of Detection (LOD)", "setting": "HbpR [1]; lacZ reporter, no amplification, three hours, blank plus three SD", "result": 0.863, "unit": "µM"},
      {"measurement": "response time of β-galactosidase reporter", "setting": "HbpR [1]; β-galactosidase reporter", "result": 2, "unit": "h"},
      {"measurement": "lowest 2-PP concentration detected with AmilCP", "setting": "HbpR [2]; absorbance at 588 nm, with amplification circuit, 24 hours", "result": "≥ 1", "unit": "µM"},
      {"measurement": "AmilCP colour after 48 hours, with amplification circuit", "setting": "HbpR [2]; [8]", "result": "vibrant purple color"},
      {"measurement": "AmilCP colour after 48 hours, without amplification circuit", "setting": "HbpR [2]; [8]", "result": "faintly visible"},
      {"measurement": "time until AmilCP purple reporter just barely visible", "setting": "HbpR [2]; agar plates, 10 μM 2-phenylphenol, with amplification circuit", "result": "12 to 24", "unit": "h"},
      {"measurement": "time to purple color response of encapsulated strain", "setting": "HbpR [3]; 10 μM 2-PP, 30° C.", "result": "≤ 24", "unit": "h"},
      {"measurement": "response of eBEADS at less than 10 μM", "setting": "HbpR [3]; after 48 hours, less than 10 μM 2PP", "result": "no response"},
      {"measurement": "LC50 for some aquatic organisms", "setting": "aquatic organisms", "result": "≥ 0.32", "unit": "µg/mL"}
    ]},
    {"smiles": "Clc1ccccc1-c1ccccc1", "note": "[PCB-1, polychlorinated biphenyl-1]", "values": [
      {"measurement": "lacZ reporter expression, mutant P6-A-8", "setting": "[4]", "result": "selective lacZ reporter expression"},
      {"measurement": "lacZ reporter expression, mutant P6-B-9", "setting": "[5]", "result": "selective lacZ reporter expression"},
      {"measurement": "lacZ reporter expression, mutant P6-F-8", "setting": "[6]", "result": "selective lacZ reporter expression"}
    ]},
    {"smiles": "Clc1ccc(-c2ccccc2)cc1", "note": "[PCB-3, polychlorinated biphenyl-3]", "values": [
      {"measurement": "lacZ reporter expression, mutant P4-A-8", "setting": "[7]", "result": "selective lacZ reporter expression"}
    ]}
  ]
}
